{"source": "patent US20240336622A1", "about": "(The Board of Regents of The University of Texas System, priority 2021, published 2024)", "key": {"[1]": {"system": "UWB1, A673, Fadu, H2058, H1048, MDA-MB-468 cells", "assay": "Cytotoxicity in cancer cell lines with different genetic background (cell titer glo)", "type": "cell-based", "settings": "1 μM for 96 hours", "source_text": "Cells were then subjected to cell titer glo analysis. Data represent mean±SEM."}, "PARP1": {"system": "PARP1", "assay": "PARP1 trapping activity of nimbolide analogs (FIGS. 19, 20)", "type": "cell-based", "settings": "for PARP1 trapping by nimbolide analogs: FIGS. 19 and 20"}, "UWB1 cells [2]": {"system": "UWB1 cells", "assay": "cells", "settings": "read-out: IC50 (μM) UWB1 cells, UWB1 cell viability"}, "UWB1 cells [3]": {"system": "UWB1 cells"}, "H889 and H82 cells": {"system": "H889 and H82 cells", "assay": "Sensitivity of Talazoparib-resistant small cell lung cancer cells", "type": "cell-based"}}, "note": "Like-named read-outs stand apart in the source and are kept apart here."}
{"smiles": "O=C(c1cc(Cc2n[nH]c(=O)c3ccccc23)ccc1F)N1CCN(C(=O)C2CC2)CC1", "note": "[Olaparib, olaparib]", "values": [{"measurement": "sensitivity of cell lines (UWB1, A673, Fadu, H2058, H1048, MDA-MB-468)", "setting": "[1]", "value": "different degrees of sensitivity"}]}
{"smiles": "CNCc1ccc(-c2[nH]c3cc(F)cc4c3c2CCNC4=O)cc1", "note": "[Rucaparib, rucaparib]", "values": [{"measurement": "sensitivity of cell lines (UWB1, A673, Fadu, H2058, H1048, MDA-MB-468)", "setting": "[1]", "value": "different degrees of sensitivity"}]}
{"smiles": "COC(=O)C[C@H]1[C@]2(C)C3=C(C)[C@H](c4ccoc4-c4ccc(O[Si](C)(C)C(C)(C)C)cc4)C[C@H]3O[C@@H]2[C@@H]2OC(=O)[C@]3(C)C=CC(=O)[C@@]1(C)[C@@H]23", "note": "[S-46]", "values": [{"measurement": "trapping activity compared to nimbolide", "setting": "PARP1; FIG. 19", "value": "more potent trapping activity"}, {"measurement": "PARP1 trapping by nimbolide analogs", "setting": "PARP1", "value": "induce PARP1 trapping"}, {"measurement": "IC50", "setting": "UWB1 cells [2]", "value": 0.089, "unit": "µM"}, {"measurement": "cytotoxicity against UWB1 cells", "setting": "UWB1 cells [3]", "value": "excellent cytotoxicity"}]}
{"smiles": "COC(=O)C[C@H]1[C@]2(C)C3=C(C)[C@H](C4=CC(=O)OC4OC(C)=O)C[C@H]3O[C@@H]2[C@@H]2OC(=O)[C@]3(C)C=CC(=O)[C@@]1(C)[C@@H]23", "note": "(stereo partly shown) [S-51]", "values": [{"measurement": "IC50", "setting": "UWB1 cells [3]; read-out: IC50 (μM) UWB1 cells, UWB1 cell viability", "value": 0.954, "unit": "µM"}]}
{"smiles": "C=C1[C@H](O[C@H]2CCC(C)=C2I)[C@@H]2OC(=O)[C@]3(C)C=CC(=O)[C@@](C)([C@@H]23)[C@H]1CC(=O)OC", "note": "[S-84]", "values": [{"measurement": "PARP1 trapping by nimbolide analogs", "setting": "PARP1", "value": "induce profound PARP1 trapping"}, {"measurement": "IC50", "setting": "UWB1 cells [2]", "value": 0.183, "unit": "µM"}]}
{"smiles": "Cn1ncnc1[C@H]1c2n[nH]c(=O)c3cc(F)cc(c23)N[C@@H]1c1ccc(F)cc1", "note": "[Talazoparib, talazoparib]", "values": [{"measurement": "sensitivity of H889 and H82 cells", "setting": "H889 and H82 cells", "value": "resistant"}]}
